Key:
[1] = Cytotoxicity against HBMSC cells incubated for 48 hrs by MTT assay; type: toxicity, cell-based; details: human
[2] = Cytotoxicity against human HO-8910 cells incubated for 48 hrs by MTT assay; type: functional, cell-based; details: HO-8910, 48 h
[3] = tested on: ES-2; assay: Cytotoxicity against human ES2 cells incubated for 48 hrs by MTT assay; type: functional, cell-based; details: ES-2, 48 h
[4] = tested on: K562; assay: Cytotoxicity against human K562 cells incubated for 48 hrs by MTT assay; type: functional, cell-based; details: K562, 48 h
[5] = tested on: Fusarium solani; assay: Antifungal activity against Fusarium solani assessed as zone of inhibition; type: functional
[6] = tested on: Aspergillus niger; assay: Antifungal activity against Aspergillus niger assessed as zone of inhibition; type: functional
[7] = tested on: Curvularia lunata; assay: Antifungal activity against Cochliobolus lunatus assessed as zone of inhibition; type: functional
[8] = tested on: Escherichia coli; assay: Antimicrobial activity against Escherichia coli assessed as zone of inhibition; type: functional
[9] = tested on: Klebsiella pneumoniae; assay: Antimicrobial activity against Klebsiella pneumoniae assessed as zone of inhibition; type: functional
[10] = tested on: Bacillus subtilis; assay: Antimicrobial activity against Bacillus subtilis assessed as zone of inhibition at 100 uM; type: functional
[11] = tested on: Staphylococcus aureus; assay: Antimicrobial activity against Staphylococcus aureus assessed as zone of inhibition at 100 uM; type: functional
[12] = tested on: HeLa; assay: Cytotoxicity against human HeLa cells; type: functional, cell-based; details: pooled result: one value given for 5 cell lines, strains, targets or settings
[13] = species on record: Homo sapiens; assay: Inhibition of PI3K (unknown origin) at 20 uM relative to control
[14] = tested on: Ebolavirus; assay: Antiviral activity against Ebola virus pseudotyped infected in HEK293T cells assessed as reduction in viral cytopathic effect; type: functional, organism-based; details: Orthoebolavirus, HEK-293T
[15] = tested on: SARS-CoV; assay: Antiviral activity against SARS-CoV Live SARS-CoV assay and cytotoxicity assessed as reduction in viral cytopathic effect; type: functional, organism-based; details: Severe acute respiratory syndrome-related coronavirus
[16] = tested on: MDA-MB-231; assay: Anticancer activity against human MDA-MB-231 cells; type: functional, cell-based
[17] = molecular target: Telomerase reverse transcriptase (Homo sapiens, UniProt O14746); assay: Inhibition of telomerase (unknown origin)
Sequence of Telomerase reverse transcriptase (O14746 whole entry): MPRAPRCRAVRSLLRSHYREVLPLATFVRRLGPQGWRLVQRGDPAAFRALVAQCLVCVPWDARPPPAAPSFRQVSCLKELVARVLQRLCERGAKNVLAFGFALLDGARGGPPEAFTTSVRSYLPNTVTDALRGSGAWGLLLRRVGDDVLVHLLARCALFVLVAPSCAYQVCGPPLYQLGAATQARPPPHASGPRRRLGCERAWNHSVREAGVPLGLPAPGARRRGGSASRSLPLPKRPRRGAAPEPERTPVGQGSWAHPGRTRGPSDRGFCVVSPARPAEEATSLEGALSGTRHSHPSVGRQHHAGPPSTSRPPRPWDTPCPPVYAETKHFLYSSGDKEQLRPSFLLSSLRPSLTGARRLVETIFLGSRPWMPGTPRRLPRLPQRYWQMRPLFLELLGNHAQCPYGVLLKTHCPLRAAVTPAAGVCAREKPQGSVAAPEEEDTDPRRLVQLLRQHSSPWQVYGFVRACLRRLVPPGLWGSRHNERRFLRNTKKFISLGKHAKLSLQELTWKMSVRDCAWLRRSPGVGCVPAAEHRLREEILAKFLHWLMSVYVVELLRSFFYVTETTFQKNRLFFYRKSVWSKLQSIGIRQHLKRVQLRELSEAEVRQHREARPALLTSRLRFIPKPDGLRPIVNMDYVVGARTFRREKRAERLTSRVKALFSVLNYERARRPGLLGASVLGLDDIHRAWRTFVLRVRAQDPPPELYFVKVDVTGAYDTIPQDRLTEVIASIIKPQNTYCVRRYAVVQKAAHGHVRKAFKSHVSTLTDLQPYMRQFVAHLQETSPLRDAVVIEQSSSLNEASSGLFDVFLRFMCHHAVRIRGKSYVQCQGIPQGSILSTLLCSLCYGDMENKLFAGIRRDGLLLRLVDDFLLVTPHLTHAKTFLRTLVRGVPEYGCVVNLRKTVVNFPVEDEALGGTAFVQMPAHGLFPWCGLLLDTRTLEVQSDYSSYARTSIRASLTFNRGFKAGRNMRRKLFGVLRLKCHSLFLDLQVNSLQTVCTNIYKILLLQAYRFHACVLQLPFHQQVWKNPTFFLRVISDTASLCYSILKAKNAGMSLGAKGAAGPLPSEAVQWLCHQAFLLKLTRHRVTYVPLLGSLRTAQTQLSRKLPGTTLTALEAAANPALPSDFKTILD

[18] = tested on: A-375; assay: Anticancer activity against human A-375 cells; type: functional, cell-based
[19] = molecular target: Acetylcholinesterase (Homo sapiens, UniProt P22303); assay: Inhibition of AChE (unknown origin) preincubated for 5 mins followed by […] measured after 5 mins by Ellman's method
Sequence of Acetylcholinesterase (P22303 whole entry): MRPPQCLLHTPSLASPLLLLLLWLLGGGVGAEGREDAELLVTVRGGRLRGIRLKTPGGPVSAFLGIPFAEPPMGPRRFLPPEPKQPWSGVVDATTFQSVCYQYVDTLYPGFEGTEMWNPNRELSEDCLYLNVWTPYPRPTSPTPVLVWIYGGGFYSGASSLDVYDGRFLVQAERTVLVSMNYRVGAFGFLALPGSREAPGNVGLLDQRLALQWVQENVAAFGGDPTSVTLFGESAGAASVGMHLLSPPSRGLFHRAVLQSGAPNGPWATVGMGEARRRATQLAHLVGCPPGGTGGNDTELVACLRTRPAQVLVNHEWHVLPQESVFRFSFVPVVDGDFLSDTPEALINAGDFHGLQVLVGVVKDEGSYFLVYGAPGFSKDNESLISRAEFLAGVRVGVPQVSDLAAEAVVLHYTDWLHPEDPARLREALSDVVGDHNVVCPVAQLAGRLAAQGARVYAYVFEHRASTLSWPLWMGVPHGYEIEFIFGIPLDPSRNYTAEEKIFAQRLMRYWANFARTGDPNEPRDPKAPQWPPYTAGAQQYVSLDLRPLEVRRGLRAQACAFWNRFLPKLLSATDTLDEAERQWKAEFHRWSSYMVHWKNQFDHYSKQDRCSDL

[20] = molecular target: T1, Cholinesterase (Homo sapiens, UniProt P06276); assay: Binding affinity to BuChE (unknown origin) assessed as inhibition constant
T1 sequence (P06276 whole entry): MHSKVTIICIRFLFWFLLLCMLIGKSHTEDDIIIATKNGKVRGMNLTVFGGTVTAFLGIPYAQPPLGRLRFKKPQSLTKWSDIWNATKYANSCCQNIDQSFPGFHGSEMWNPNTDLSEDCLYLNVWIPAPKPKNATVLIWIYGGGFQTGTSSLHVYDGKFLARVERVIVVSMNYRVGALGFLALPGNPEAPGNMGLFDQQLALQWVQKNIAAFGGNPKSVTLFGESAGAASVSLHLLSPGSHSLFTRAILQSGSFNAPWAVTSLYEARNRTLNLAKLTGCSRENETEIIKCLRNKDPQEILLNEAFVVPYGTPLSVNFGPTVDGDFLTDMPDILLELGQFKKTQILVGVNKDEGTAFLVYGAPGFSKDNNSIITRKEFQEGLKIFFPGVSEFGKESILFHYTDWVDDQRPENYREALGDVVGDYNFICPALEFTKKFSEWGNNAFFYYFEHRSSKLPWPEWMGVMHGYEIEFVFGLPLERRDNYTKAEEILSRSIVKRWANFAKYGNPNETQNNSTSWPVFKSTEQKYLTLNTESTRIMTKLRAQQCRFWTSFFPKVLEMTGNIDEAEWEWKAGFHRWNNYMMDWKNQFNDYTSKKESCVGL

[21] = molecular target: T1, Cholinesterase; assay: Inhibition of human serum BuChE preincubated for 5 mins followed by BuCh addition measured after 5 mins by Ellman's method
[22] = molecular target: Cholinesterase (Equus caballus, UniProt P81908); assay: Inhibition of horse serum BuChE preincubated for 5 mins followed by BuCh addition measured after 5 mins by Ellman's method
Sequence of Cholinesterase (Equus caballus, UniProt P81908) (P81908 whole entry): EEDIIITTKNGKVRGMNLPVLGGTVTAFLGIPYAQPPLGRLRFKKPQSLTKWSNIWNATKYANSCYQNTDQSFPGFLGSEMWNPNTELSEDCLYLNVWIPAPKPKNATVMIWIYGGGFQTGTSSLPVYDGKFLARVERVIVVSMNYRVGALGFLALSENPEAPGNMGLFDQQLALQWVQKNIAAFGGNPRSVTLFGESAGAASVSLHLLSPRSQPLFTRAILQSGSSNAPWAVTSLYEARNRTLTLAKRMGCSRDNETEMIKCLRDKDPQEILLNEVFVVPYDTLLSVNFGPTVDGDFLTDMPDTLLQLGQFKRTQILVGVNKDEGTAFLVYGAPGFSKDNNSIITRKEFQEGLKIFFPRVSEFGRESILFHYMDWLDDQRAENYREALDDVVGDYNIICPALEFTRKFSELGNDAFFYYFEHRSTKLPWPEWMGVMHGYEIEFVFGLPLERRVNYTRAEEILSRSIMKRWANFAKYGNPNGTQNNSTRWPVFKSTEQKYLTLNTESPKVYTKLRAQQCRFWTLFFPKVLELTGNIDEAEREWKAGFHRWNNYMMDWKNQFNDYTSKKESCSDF

[23] = tested on: PC-12; assay: Neuroprotection against H2O2-induced cell injury in rat PC-12 cells assessed as cell viability preincubated for 3 hrs followed by H2O2 addition measured after 5 hrs by MTT assay; type: functional; details: time 8 hrs
[24] = tested on: HUVEC; assay: Antitubulin activity against HUVEC assessed as morphological changes of tube incubated for 6 hrs by inverted microscope; type: functional, cell-based; details: Homo sapiens
[25] = tested on: NCI-H1975; assay: Cytotoxicity against human NCI-H1975 cells expressing EGFR T790 mutant incubated for 72 hrs by MTT assay; type: functional, cell-based; details: NCI-H1975, 72 h
[26] = tested on: A549; assay: Cytotoxicity against human A549 cells expressing EGFR incubated for 72 hrs by MTT assay; type: functional, cell-based; details: A549, 72 h
[27] = tested on: A-431; assay: Cytotoxicity against human A431 cells expressing EGFR incubated for 72 hrs by MTT assay; type: functional, cell-based; details: A-431, 72 h
[28] = tested on: OVCAR-3; assay: Cytotoxicity against human OVCAR-3 cells assessed as reduction in cell viability; type: functional, cell-based
[29] = tested on: PC-3; assay: Cytotoxicity against human PC-3 cells assessed as reduction in cell viability; type: functional, cell-based
[30] = tested on: HT-29; assay: Cytotoxicity against human HT-29 cells assessed as reduction in cell viability; type: functional, cell-based
[31] = tested on: MeWo; assay: Cytotoxicity against human MeWo cells assessed as reduction in cell viability; type: functional, cell-based
[32] = tested on: SK-OV-3; assay: Cytotoxicity against human SK-OV-3 cells assessed as reduction in cell viability; type: functional, cell-based
[33] = Cytotoxicity against human SB2 cells assessed as reduction in cell viability; type: functional, cell-based
[34] = tested on: BV-2; assay: Anti-infalmmatory activity in LPS-induced NO production in mouse BV-2 microglial cells preincubated for 3 hrs followed by LPS addition measured after 24 hrs by NO assay kit; type: functional, cell-based
[35] = Permeability of the compound across blood brain barrier by PAMPA; type: ADME, tissue-based; details: read-out: logBB (converted)
[36] = Permeability across blood brain barrier assessed as central nervous system multi-parameter optimization score; type: ADME, tissue-based
[37] = tested on: HeLa; assay: Antiproliferative activity against human HeLa cells treated for 4 days; type: functional, cell-based; details: 96 h
[38] = tested on: L1210; assay: Antiproliferative activity against mouse L1210 cells treated for 48 hrs; type: functional, cell-based; details: L1210, 48 h
[39] = tested on: CCRF-CEM; assay: Antiproliferative activity against human CEM cells treated for 96 hrs; type: functional, cell-based
[40] = tested on: Human alphaherpesvirus 3; assay: Antiviral activity against VZV strain Oka bearing wild type thymidine kinase assessed as reduction in virus induced cytopathogenicity; type: functional, organism-based

CC(=O)c1ccc(/C(=C\C(F)(F)F)S(=O)(=O)c2ccccc2)cc1
IC50 at 48 h [1]: 200 nM
IC50 [2]: 400 nM
IC50 [3]: 400 nM
IC50 [4]: 200 nM

O=C(c1ccc(Cl)cc1)c1c[nH]cc1S(=O)(=O)c1c(-c2ccc(Cl)cc2)noc1-c1ccccc1
Activity [5]: >26 mm
Activity [6]: >26 mm
Activity [7]: >26 mm
Activity [8]: >20 mm
Activity [9]: >20 mm
Activity [10]: >25 mm
Activity [11]: >25 mm

O=c1oc2ccc([N+](=O)[O-])cc2cc1S(=O)(=O)Cc1ccc(F)cc1
IC50 [12]: 18100 nM
inhibition [13]: 50%

COc1cc(OC)c(/C=C/S(=O)(=O)Cc2ccc(OC)c(NCC(=O)O)c2)c(OC)c1 [RIGOSERTIB SODIUM]
IC50 [12]: 10 nM

CCN1CCN(C(=O)N[C@@H](Cc2ccccc2)C(=O)N[C@H](/C=C/S(=O)(=O)c2ccccc2)CCc2ccccc2)CC1
IC50 [14]: 0.04 nM
IC50 [15]: 0.04 nM

O=S(=O)(F)/C=C/C=C/c1ccc(/C=C/S(=O)(=O)F)cc1
IC50 [16]: 3220 nM
IC50 [17]: < 1000 nM
IC50 [18]: 1580 nM

CN1CCN(C(=O)N[C@@H](Cc2ccccc2)C(=O)N[C@H](/C=C/S(=O)(=O)c2ccccc2)CCc2ccccc2)CC1 [K-777]
IC50 [14]: 0.36 nM

COCCN1CCN(C(=O)N[C@@H](Cc2ccccc2)C(=O)N[C@H](/C=C/S(=O)(=O)c2ccccc2)CCc2ccccc2)CC1
IC50 [14]: 0.04 nM
IC50 [15]: 0.04 nM

COc1ccccc1/C=C/C=C(\Br)S(=O)(=O)F
IC50 [19]: 79 nM
Ki [20]: 29 nM
IC50 [21]: 3620 nM
IC50 [22]: 21 nM

O=S(=O)(/C=C/c1ccc(O)c(O)c1)CCCc1ccccc1
Activity [23]: 94.5%

CC(C)N1CCN(C(=O)N[C@@H](Cc2ccccc2)C(=O)N[C@H](/C=C/S(=O)(=O)c2ccccc2)CCc2ccccc2)CC1
IC50 [14]: 0.04 nM
IC50 [15]: 0.04 nM

O=C(c1ccc(Cl)cc1)c1c[nH]cc1S(=O)(=O)c1n[nH]cc1-c1ccccc1
Activity [5]: >26 mm
Activity [6]: >26 mm
Activity [7]: >26 mm
Activity [8]: >20 mm
Activity [9]: >20 mm
Activity [10]: >25 mm
Activity [11]: >25 mm

COc1ccc(/C=C/S(=O)(=O)c2cc(OC)c(OC)c(OC)c2)cc1N
IC50 [24]: 4250 nM

O=C(N[C@H](CO)[C@H](O)c1ccc([N+](=O)[O-])cc1)C(Cl)Cl [CHLORAMPHENICOL]
Activity [8]: >35 mm
Activity [9]: >35 mm

COc1cc(/C=C/S(=O)(=O)c2ccccc2)cc(OC)c1OC
IC50 [25]: 30400 nM
IC50 [26]: 54600 nM
IC50 [27]: 33500 nM

C=C(CCCCCCCCCCCCCCCC)S(=O)(=O)CCC[N+](C)(C)C
IC50 [28]: 390 nM
IC50 [29]: 390 nM
IC50 [30]: 390 nM
IC50 [31]: 390 nM
IC50 [32]: 390 nM
IC50 [33]: 390 nM

O=S(=O)(/C=C/c1ccc(O)c(O)c1)CCCC1CCCC1
IC50 [34]: 1600 nM
Kp [35]: 0.316
Activity [36]: 4.36

CC(C)(C)N1CCN(C(=O)N[C@@H](Cc2ccccc2)C(=O)N[C@H](/C=C/S(=O)(=O)c2ccccc2)CCc2ccccc2)CC1
IC50 [14]: 0.04 nM
IC50 [15]: 0.04 nM

O=c1oc2ccc(Br)cc2cc1S(=O)(=O)Cc1ccc(F)cc1
IC50 [12]: 29300 nM
inhibition [13]: 50%

CC(=O)OC[C@H]1O[C@@H](n2cc(/C(Cl)=C\S(=O)(=O)c3ccc(C)cc3)c(=O)[nH]c2=O)C[C@@H]1OC(C)=O
IC50 [37]: 23000 nM
IC50 [38]: 5600 nM
IC50 [39]: 11000 nM
EC50 [40]: 4000 nM

O=C(N[C@H](/C=C/S(=O)(=O)c1ccccc1)CCc1ccccc1)[C@H](Cc1ccccc1)NC(=O)N1CCN(c2ccccc2)CC1
IC50 [14]: 0.04 nM
IC50 [15]: 0.04 nM

CC(=O)N1CCN(c2ccc(OCC3COC(Cn4ccnc4)(c4ccc(Cl)cc4Cl)O3)cc2)CC1 (centres undefined) [KETOCONAZOLE]
Activity [5]: >36 mm
Activity [6]: >36 mm
Activity [7]: >36 mm

O=S(=O)(F)/C=C/c1ccc2ccccc2c1
IC50 [17]: < 1000 nM

CCCN1CCN(C(=O)N[C@@H](Cc2ccccc2)C(=O)N[C@H](/C=C/S(=O)(=O)c2ccccc2)CCc2ccccc2)CC1
IC50 [14]: 0.04 nM
IC50 [15]: 0.04 nM

O=S(=O)(F)/C=C/c1ccc(-c2ccccc2)cc1
IC50 [17]: < 1000 nM

O=c1[nH]c(=O)n([C@H]2C[C@H](O)[C@@H](CO)O2)cc1/C=C/Br [BRIVUDINE]
EC50 [40]: 20 nM
